Like-named read-outs stand apart in the source and are kept apart here.
Columns and labels:
[1] = tested on: HeLa cervical cancer cells; assay: MTT antiproliferative assay, HeLa; assay type: cell-based; details: Homo sapiens, read-out: IC50 HeLa Cervical
[2] = tested on: human peripheral blood mononuclear cells (PBMC); assay: MTT assay on normal PBMC; assay type: cell-based; details: 48 h, read-out: IC50 PBMC (normal cells)
[3] = tested on: MCF-7 breast cancer cells; assay: MTT antiproliferative assay, MCF-7; assay type: cell-based; details: Homo sapiens
[4] = tested on: MIA PaCa-2 pancreatic cancer cells; assay: MTT antiproliferative assay, MIA PaCa-2; assay type: cell-based; details: Homo sapiens
[5] = tested on: CaCo-2 colon cancer cells; assay: MTT antiproliferative assay, CaCo-2; assay type: cell-based; details: Homo sapiens
[6] = tested on: HL-60 leukemia cells; assay: MTT antiproliferative assay, HL-60; assay type: cell-based, human; details: Homo sapiens
[7] = tested on: DU145 prostate cancer cells; assay: MTT antiproliferative assay, DU145; assay type: cell-based; details: Homo sapiens
[8] = tested on: MCF-10A mammary epithelial cells; assay: MTT assay on normal MCF-10A cells; assay type: cell-based; details: Homo sapiens, 48 h, read-out: IC50 MCF-10A Breast (normal cell line)
[9] = tested on: MCF-7 cells; assay: Rhodamine-123 mitochondrial membrane potential assay, MCF-7; assay type: cell-based, human; details: 24 h
Experimental: [Worded in the source for another cell line; this cell line is reported under the same test.] Mitochondrial membrane potential changes (ΔΨm) were determined by flow cytometry using rhodamine-123 (green-fluorescent dye)[32]. MIA PaCa-2 pancreatic cancer cells (1 × 10^6 cells/well) were exposed to the isolated compound (5 µM) for 24 h. Further, rhodamine-123 (200 nM) was added to the cells, which were kept in dark for 35 min. The cells were further centrifuged and the pellet was washed with phosphate buffered saline (1 ml). The intensity of fluorescence in the cells represented the mitochondrial membrane potential change (ΔΨm), which was measured using a flow cytometer.

[10] = MTT assay, cancer cell line, mean of three independent experiments ± S.E.M.
[11] = MCF7, MTT assay, cancer cell line, mean of three independent experiments ± S.E.M., read-out: IC50 MCF-7 Breast
[12] = MIA PaCa-2, MTT assay, cancer cell line, mean of three independent experiments ± S.E.M., read-out: IC50 MIA PaCa-2 Pancreatic
[13] = Caco-2, MTT assay, cancer cell line, mean of three independent experiments ± S.E.M., read-out: IC50 CaCo-2 Colon
[14] = HL-60, MTT assay, cancer cell line, mean of three independent experiments ± S.E.M., read-out: IC50 HL-60 Leukemia
[15] = DU-145, MTT assay, cancer cell line, mean of three independent experiments ± S.E.M., read-out: IC50 DU145 Prostate

SMILES | IC50 [1, 10] | IC50 [3, 11] | IC50 [4, 12] | IC50 [5, 13] | melting point | IC50 [6, 14] | IC50 [7, 15] | IC50 ([2]; MTT assay, normal cells) | IC50 ([8]; MTT assay, normal cells) | mitochondria membrane potential loss ([9]; 5 µM) | mitochondria membrane potential loss ([9]; 10 µM) | IC50 [1] | IC50 [2] | IC50 ([3]; MCF7, read-out: IC50 MCF-7 Breast) | IC50 ([4]; MIA PaCa-2, read-out: IC50 MIA PaCa-2 Pancreatic) | IC50 ([5]; Caco-2, read-out: IC50 CaCo-2 Colon) | IC50 ([6]; HL-60, read-out: IC50 HL-60 Leukemia) | IC50 ([7]; DU-145, read-out: IC50 DU145 Prostate) | IC50 [8]
COc1cc(CO)cc(OC)c1OC1OC(COC(=O)c2ccccc2I)C(O)C(O)C1O (stereo not drawn) [Compound 9n, (6-(4-(hydroxymethyl)-2,6-dimethoxyphenoxy)-tetrahydro-3,4,5-tri hydroxy-2H-pyran-2-yl)methyl 2-iodobenzoate] | 32.1 ± 1.35 µM | 35 ± 1.52 µM | 26.8 ± 1.25 µM | 45.2 ± 1.79 µM | 124 to 126 °C | 28.3 ± 1.72 µM | 37.9 ± 2.48 µM | > 100 µM | > 100 µM | – | – | – | – | – | – | – | – | – | –
COc1cc(CO)cc(OC)c1OC1OC(COC(=O)c2ccc(F)cc2)C(O)C(O)C1O (stereo not drawn) [Compound 9m, (6-(4-(hydroxymethyl)-2,6-dimethoxyphenoxy)-tetrahydro-3,4,5-tri hydroxy-2H-pyran-2-yl)methyl 4-fluorobenzoate] | 34.1 ± 1.83 µM | 28.4 ± 0.69 µM | 47.3 ± 2.54 µM | 35.6 ± 1.46 µM | 170 to 172 °C | 21.8 ± 1.53 µM | 33.8 ± 1.27 µM | > 100 µM | > 100 µM | – | – | – | – | – | – | – | – | – | –
CC[C@@]1(O)C(=O)OCc2c1cc1n(c2=O)Cc2cc3ccccc3nc2-1 [Camptothecin, camptothecin, reference compound] | 4.28 ± 0.32 µM | 5.16 ± 0.32 µM | 4.24 ± 0.41 µM | 3.68 ± 0.21 µM | – | 4.95 ± 0.5 µM | 6.75 ± 0.45 µM | > 100 µM | > 100 µM | 53.33 ± 3.06% | 62 ± 2.31% | – | – | – | – | – | – | – | –
COc1cc(CO)ccc1OC1OC(COC(=O)c2ccccc2I)C(O)C(O)C1O (stereo not drawn) [Compound 9g, (6-(4-(hydroxymethyl)-2-methoxyphenoxy)-tetrahydro-3,4,5-trihydroxy-2H-pyran-2-yl)methyl 2-iodobenzoate] | 41.9 ± 3.15 µM | 28.9 ± 0.47 µM | 23.4 ± 1.53 µM | 43.9 ± 2.52 µM | 128 to 130 °C | 33.5 ± 1.45 µM | 38.32 ± 0.37 µM | > 100 µM | > 100 µM | – | – | – | – | – | – | – | – | – | –
COc1cc(CO)ccc1OC1OC(COC(=O)c2cc([N+](=O)[O-])cc([N+](=O)[O-])c2)C(O)C(O)C1O (stereo not drawn) [Compound 9i, (6-(4-(hydroxymethyl)-2-methoxyphenoxy)-tetrahydro-3,4,5-trihydroxy-2H-pyran-2-yl)methyl 3,5-dinitrobenzoate] | – | – | – | – | 186 to 188 °C | – | – | – | – | – | – | 38.4 ± 1.53 µM | > 100 µM | 34.8 ± 0.51 µM | 34.8 ± 1.93 µM | 47 ± 2.58 µM | 29.6 ± 0.83 µM | 43.6 ± 1.87 µM | > 100 µM
COc1cc(CO)cc(OC)c1OC1OC(COC(=O)c2ccccc2)C(O)C(O)C1O (stereo not drawn) [Compound 9j, (6-(4-(hydroxymethyl)-2,6-dimethoxyphenoxy)-tetrahydro-3,4,5-trihydroxy-2H-pyran-2-yl)methyl benzoate] | 30.4 ± 2.81 µM | 29.4 ± 0.79 µM | 45.76 ± 0.42 µM | 33.6 ± 1.51 µM | 180 to 182 °C | 25.6 ± 0.94 µM | 36.8 ± 0.59 µM | > 100 µM | > 100 µM | – | – | – | – | – | – | – | – | – | –
COc1cc(CO)ccc1OC1OC(COC(=O)c2cc(OC)c(OC)c(OC)c2)C(O)C(O)C1O (stereo not drawn) [Compound 9e, (6-(4-(hydroxymethyl)-2-methoxyphenoxy)-tetrahydro-3,4,5-trihydroxy-2H-pyran-2-yl)methyl 3,4,5-trimethoxybenzoate] | – | 33.4 ± 0.76 µM | 36.3 ± 1.58 µM | 43.5 ± 1.87 µM | 168 to 170 °C | 22.2 ± 1.32 µM | 49.4 ± 1.72 µM | > 100 µM | > 100 µM | – | – | – | – | – | – | – | – | – | –
COc1cc(OC)cc(C(=O)OCC2OC(Oc3c(OC)cc(CO)cc3OC)C(O)C(O)C2O)c1 (stereo not drawn) [Compound 9l, (6-(4-(hydroxymethyl)-2,6-dimethoxyphenoxy)-tetrahydro-3,4,5-trihydroxy-2H-pyran-2-yl)methyl 3,5-dimethoxybenzoate] | 36.3 ± 1.76 µM | 33.8 ± 0.73 µM | 43.8 ± 1.75 µM | 41.1 ± 1.48 µM | 131 to 133 °C | 31.8 ± 1.58 µM | 49.6 ± 3.59 µM | > 100 µM | > 100 µM | – | – | – | – | – | – | – | – | – | –
COc1cc(CO)ccc1OC1OC(COC(=O)c2cccnc2)C(O)C(O)C1O (stereo not drawn) [Compound 9h, (6-(4-(hydroxymethyl)-2-methoxyphenoxy)-tetrahydro-3,4,5-trihydroxy-2H-pyran-2-yl)methyl nicotinate] | 35.4 ± 2.2 µM | 33.9 ± 0.48 µM | 33.9 ± 1.41 µM | 49.04 ± 0.48 µM | 194 to 196 °C | 30.2 ± 1.32 µM | 42.1 ± 1.52 µM | > 100 µM | > 100 µM | – | – | – | – | – | – | – | – | – | –

More lines, main results first:

IC50 [1, 10] | IC50 [3, 11] | IC50 [4, 12] | IC50 [5, 13] | melting point | IC50 [6, 14] | IC50 [7, 15] | SMILES | IC50 ([2]; MTT assay, normal cells) | IC50 ([8]; MTT assay, normal cells) | mitochondria membrane potential loss ([9]; 5 µM) | mitochondria membrane potential loss ([9]; 10 µM) | IC50 [1] | IC50 [2] | IC50 ([3]; MCF7, read-out: IC50 MCF-7 Breast) | IC50 ([4]; MIA PaCa-2, read-out: IC50 MIA PaCa-2 Pancreatic) | IC50 ([5]; Caco-2, read-out: IC50 CaCo-2 Colon) | IC50 ([6]; HL-60, read-out: IC50 HL-60 Leukemia) | IC50 ([7]; DU-145, read-out: IC50 DU145 Prostate) | IC50 [8]
14.2 ± 0.68 µM | 9.34 ± 0.48 µM | 13.3 ± 0.25 µM | 13.7 ± 0.63 µM | 228 to 230 °C | 12.5 ± 0.81 µM | 12.4 ± 0.47 µM | COc1cc(CO)ccc1OC1OC(COC(=O)c2ccc(C)cc2)C(O)C(O)C1O (stereo not drawn) [Compound 9c, (6-(4-(hydroxymethyl)-2-methoxyphenoxy)-tetrahydro-3,4,5-trihydroxy-2H-pyran-2-yl)methyl 4-methylbenzoate] | > 100 µM | > 100 µM | – | – | – | – | – | – | – | – | – | –
39.9 ± 2.6 µM | 24.9 ± 1.67 µM | 28.3 ± 0.76 µM | 44.7 ± 2.52 µM | 200 to 202 °C | 31.8 ± 1.82 µM | 33.5 ± 1.43 µM | COc1cc(C(=O)OC[C@H]2O[C@@H](Oc3ccc(CO)cc3OC)[C@H](O)[C@@H](O)[C@@H]2O)ccc1O [Compound 10, (6-(4-(hydroxymethyl)-2-methoxyphenoxy)-tetrahydro-3,4,5-trihydroxy-2H-pyran-2-yl) methyl 4-hydroxy-3-methoxy benzoate] | > 100 µM | > 100 µM | – | – | – | – | – | – | – | – | – | –
39.5 ± 2.43 µM | 28.3 ± 1.47 µM | 44.6 ± 2.67 µM | 37.4 ± 1.65 µM | 199 to 201 °C | 25.2 ± 1.92 µM | 42.5 ± 1.51 µM | COc1cc(OC)cc(C(=O)OCC2OC(Oc3ccc(CO)cc3OC)C(O)C(O)C2O)c1 (stereo not drawn) [Compound 9d, (6-(4-(hydroxymethyl)-2-methoxyphenoxy)-tetrahydro-3,4,5-trihydroxy-2H-pyran-2-yl)methyl 3,5-dimethoxybenzoate] | > 100 µM | > 100 µM | – | – | – | – | – | – | – | – | – | –
36.7 ± 2.31 µM | 26.4 ± 0.96 µM | 39.3 ± 1.42 µM | 47.3 ± 1.62 µM | 187 to 189 °C | 22.8 ± 1.3 µM | 37.3 ± 2.54 µM | COc1cc(CO)ccc1OC1OC(COC(=O)c2ccccc2)C(O)C(O)C1O (stereo not drawn) [Compound 9b, (6-(4-(hydroxymethyl)-2-methoxyphenoxy)-tetrahydro-3,4,5-trihydroxy-2H-pyran-2-yl)methyl benzoate] | > 100 µM | > 100 µM | – | – | – | – | – | – | – | – | – | –
26.6 ± 1.37 µM | 22 ± 0.72 µM | 23.9 ± 0.74 µM | 28.3 ± 1.47 µM | 201 to 203 °C | 18.5 ± 0.78 µM | 42.8 ± 0.59 µM | COc1cc(CO)cc(OC)c1OC1OC(COC(=O)c2ccc(C)cc2)C(O)C(O)C1O (stereo not drawn) [Compound 9k, (6-(4-(hydroxymethyl)-2,6-dimethoxyphenoxy)-tetrahydro-3,4,5-trihydroxy-2H-pyran-2-yl)methyl 4-methylbenzoate] | > 100 µM | > 100 µM | – | – | – | – | – | – | – | – | – | –

From paper PMC5559490, “Synthesis of Saccharumoside-B analogue with potential of antiproliferative and pro-apoptotic activities” (Scientific Reports, 2017)
